Tests used:
Format in all cases: cell-based, human
[1] = tested on: latex specific T cell lines; assay: Oligoclonal T cell proliferation assay (3H-thymidine incorporation); design: key to Proliferation inducing (+) or non-inducing (−) peptide: Proliferation inducing and non-inducing peptides are indicated by (+) and (−) respectively; Proliferation inducing and non-inducing peptides are indicated by (+) and (−) respectively; settings: for Oligoclonal proliferative response: 4 day cultures
Protocol: Latex specific T cell lines were isolated using our well established methods for the generation of allergen specific oligoclonal T cell populations (O'Hehir et al., 1987). An initial primary culture was performed for each patient to determine the optimal concentration of LAL for stimulation. For this, peripheral blood mononuclear cells (PBMC) separated from heparinised venous blood by density centrifugation (2×10^5/well) were stimulated with LAL over a concentration range 0.03 to 100 μg/ml, with control cultures of PBMC alone or stimulated with tetanus toxoid. All cultures were maintained in complete medium (RPMI-1640, Gibco Life Technologies supplemented with 2 mmol/L L-glutamine, 100 IU/ml penicillin-streptomycin and 5% screened, heat inactivated human AB serum [Sigma]). […] Therefore, to generate T cell lines, PBMC (2.5×10^6/well) were stimulated for 1 week with LAL at a concentration of 20 μg/ml in 24-well tissue culture plates (Costar, USA). After 7 days, lymphoblasts (1×10^6/well) were restimulated for one week with LAL at a concentration of 20 μg/ml in the presence of an equal number of irradiated (3000 rad) autologous PBMC as antigen presenting cells (APC). On days 2 and 4, cultures were supplemented with Lymphocult-T (5% v/v; Biotest Folex, Germany) and fresh medium. At the end of the second week, lymphoblasts were restimulated for one week with rhev b 5/MBP at a concentration of 20 μg/ml as described above. Oligoclonal T cells were recovered, washed and tested in proliferation and cytokine assays (as described below) either fresh or after cryopreservation in liquid nitrogen. We have previously shown that CD4^+ T cells are preferentially expanded in these cultures.
Oligoclonal T cell blasts (5×10^4) were incubated in 96-well round bottom plates (Linbro, ICN Biomedicals, USA) in triplicate with equal numbers of irradiated APC in the presence of LAL at concentrations ranging from 0.03-100 μg/ml, rHev b 5/MBP (10 and 20 μg/ml), MBP (10 and 20 μg/ml), overlapping peptides of the Hev b 5 sequence (10 and 30 μg/ml), Lymphocult-T (10 IU/ml) or PHA (3 μg/ml). Cultures of T cells and APC in the absence of antigen, T cells alone and APC alone in the absence of antigen were included as controls. After 72 hours cultures were pulsed with 1 μCi of ^3H-thymidine (^3HTdR; Du Pont, NEN) and harvested 12-16 hours later. Proliferation as correlated with ^3HTdR incorporation was measured by liquid scintillation spectroscopy. Results are expressed as mean counts per minute (cpm) for triplicate cultures with standard deviation (SD; ±20% for all experiments).

IFNγ = IFNγ production by latex specific oligoclonal T cells (ELISA on culture supernatants); settings: supernatant at 48 hours
Protocol: (§1) Representative stimulatory and non-stimulatory peptides were selected and T cells cultured in triplicate with these peptides. At 48 hours 50 μl of supernatant was harvested from the cultures and IL-5 and IFNγ were assayed by ELISA using paired cytokine antibodies (from Pharmingen Becton Dickinson, USA and Endogen, USA respectively). For this, opaque flat bottom ELISA plates (Nalgene, Nunc International) were coated with 30 μl capture antibody at 2 μg/ml in 0.1 M NaHCO3 pH 8.2 coating buffer overnight at 4° C. After washing three times with PBS/0.5% Tween the wells were blocked with 3% BSA/PBS at room temperature for 2 hours. The plates were washed and 30 μL pooled triplicate culture supernatants added in duplicate. […] Light emission was read immediately on a Lumicount microplate Glow Luminometer (Packard Instrument Company). A standard curve was run each time using known concentrations of standard cytokine samples and the concentrations of IL-S and IFNγ in the culture supernatants calculated accordingly. The lower limit of detection of the IL-5 assay was 20 pg/ml and the lower limit of detection of the IFN-γ assay was 2 pg/ml.

IL-5 = IL-5 production by latex specific oligoclonal T cells (ELISA on culture supernatants); settings: for IL-5: supernatant at 48 hours; for secretion of IL-5 (in words): patient 4 T cell line
Protocol: as §1

[2] = P1 T cell line, antigen 10 μg/ml
[3] = P1 T cell line, antigen 30 μg/ml
[4] = P2 T cell line, antigen 10 μg/ml
[5] = P2 T cell line, antigen 30 μg/ml
[6] = P3 T cell line, antigen 10 μg/ml
[7] = P3 T cell line, antigen 30 μg/ml
[8] = P4 T cell line, antigen 10 μg/ml
[9] = P4 T cell line, antigen 30 μg/ml
[10] = P5 T cell line, antigen 10 μg/ml
[11] = P5 T cell line, antigen 30 μg/ml
[12] = P6 T cell line, antigen 10 μg/ml
[13] = P6 T cell line, antigen 30 μg/ml
[14] = P1 T cell line, peptide 10 μg/ml
[15] = P1 T cell line, peptide 30 μg/ml
[16] = P2 T cell line, peptide 10 μg/ml
[17] = P2 T cell line, peptide 30 μg/ml
[18] = P4 T cell line, peptide 10 μg/ml
[19] = P4 T cell line, peptide 30 μg/ml
[20] = P3 T cell line, peptide 10 μg/ml
[21] = P3 T cell line, peptide 30 μg/ml

Sequence: AEEEKPITEAAETATTEVPV [Hev b 5 (127-146)]
- Oligoclonal proliferative response [1, 2]: 3.3 counts per minute × 10^−3
- Oligoclonal proliferative response [1, 3]: 4.4 counts per minute × 10^−3
- Oligoclonal proliferative response [1, 4]: 3.8 counts per minute × 10^−3
- Oligoclonal proliferative response [1, 5]: 6.6 counts per minute × 10^−3
- Oligoclonal proliferative response [1, 6]: 7.1 counts per minute × 10^−3
- Oligoclonal proliferative response [1, 7]: 8.3 counts per minute × 10^−3
- Oligoclonal proliferative response [1, 8]: 2.2 counts per minute × 10^−3
- Oligoclonal proliferative response [1, 9]: 1.6 counts per minute × 10^−3
- Oligoclonal proliferative response [1, 10]: 2.7 counts per minute × 10^−3
- Oligoclonal proliferative response [1, 11]: 2.5 counts per minute × 10^−3
- Oligoclonal proliferative response [1, 12]: 1.0 counts per minute × 10^−3
- Oligoclonal proliferative response [1, 13]: 0.8 counts per minute × 10^−3

Sequence: APAEPEAPAPETEKAEEVEK [Hev b 5 (55-74)]
- IFNγ (IFNγ; [14]): 0 pg/mL
- IFNγ (IFNγ; [15]): 0 pg/mL
- IFNγ (IFNγ; [16]): 2 pg/mL
- IFNγ (IFNγ; [17]): 4 pg/mL
- IFNγ (IFNγ; [18]): 0 pg/mL
- IFNγ (IFNγ; [19]): 0 pg/mL
- Proliferation inducing (+) or non-inducing (−) peptide ([1]; P1 T cell line): 55-74 (−)
- Oligoclonal proliferative response [1, 2]: 5.0 counts per minute × 10^−3
- Oligoclonal proliferative response [1, 3]: 7.7 counts per minute × 10^−3
- Proliferation inducing (+) or non-inducing (−) peptide ([1]; P2 T cell line): 55-74 (−)
- Oligoclonal proliferative response [1, 4]: 2.8 counts per minute × 10^−3
- Oligoclonal proliferative response [1, 5]: 5.6 counts per minute × 10^−3
- Oligoclonal proliferative response [1, 6]: 9.1 counts per minute × 10^−3
- Oligoclonal proliferative response [1, 7]: 8.2 counts per minute × 10^−3
- Proliferation inducing (+) or non-inducing (−) peptide ([1]; P4 T cell line): 55-74 (+)
- Oligoclonal proliferative response [1, 8]: 2.0 counts per minute × 10^−3
- Oligoclonal proliferative response [1, 9]: 2.8 counts per minute × 10^−3
- Oligoclonal proliferative response [1, 10]: 1.1 counts per minute × 10^−3
- Oligoclonal proliferative response [1, 11]: 0.7 counts per minute × 10^−3
- Oligoclonal proliferative response [1, 12]: 0.7 counts per minute × 10^−3
- Oligoclonal proliferative response [1, 13]: 0.9 counts per minute × 10^−3
- IL-5 (IL-5; [14]): 0 pg/mL
- IL-5 (IL-5; [15]): 0 pg/mL
- IL-5 (IL-5; [16]): 0 pg/mL
- IL-5 (IL-5; [17]): 0 pg/mL
- IL-5/IFNγ ratio (IL-5; [18]): 70
- IL-5 (IL-5; [18]): 70 pg/mL
- IL-5/IFNγ ratio (IL-5; [19]): 199
- IL-5 (IL-5; [19]): 199 pg/mL
- secretion of IL-5 (in words) (IL-5): secretion of IL-5

Sequence: ASEQETADATPEKEEPTAAP [Hev b 5 (37-56)]
- IFNγ (IFNγ; [14]): 0 pg/mL
- IFNγ (IFNγ; [15]): 0 pg/mL
- IFNγ (IFNγ; [16]): 74 pg/mL
- IFNγ (IFNγ; [17]): 77 pg/mL
- IFNγ (IFNγ; [18]): 0 pg/mL
- IFNγ (IFNγ; [19]): 6 pg/mL
- Proliferation inducing (+) or non-inducing (−) peptide ([1]; P1 T cell line): 37-56 (−)
- Oligoclonal proliferative response [1, 2]: 7.1 counts per minute × 10^−3
- Oligoclonal proliferative response [1, 3]: 8.5 counts per minute × 10^−3
- Proliferation inducing (+) or non-inducing (−) peptide ([1]; P2 T cell line): 37-56 (+)
- Oligoclonal proliferative response [1, 4]: 18.3 counts per minute × 10^−3
- Oligoclonal proliferative response [1, 5]: 38.8 counts per minute × 10^−3
- Oligoclonal proliferative response [1, 6]: 8.8 counts per minute × 10^−3
- Oligoclonal proliferative response [1, 7]: 2.7 counts per minute × 10^−3
- Proliferation inducing (+) or non-inducing (−) peptide ([1]; P4 T cell line): 37-56 (+)
- Oligoclonal proliferative response [1, 8]: 3.0 counts per minute × 10^−3
- Oligoclonal proliferative response [1, 9]: 3.2 counts per minute × 10^−3
- Oligoclonal proliferative response [1, 10]: 1.4 counts per minute × 10^−3
- Oligoclonal proliferative response [1, 11]: 1.1 counts per minute × 10^−3
- Oligoclonal proliferative response [1, 12]: 1.4 counts per minute × 10^−3
- Oligoclonal proliferative response [1, 13]: 0.9 counts per minute × 10^−3
- IL-5 (IL-5; [14]): 0 pg/mL
- IL-5 (IL-5; [15]): 0 pg/mL
- IL-5/IFNγ ratio (IL-5; [16]): 10.1
- IL-5 (IL-5; [16]): 744 pg/mL
- IL-5/IFNγ ratio (IL-5; [17]): 10
- IL-5 (IL-5; [17]): 767 pg/mL
- IL-5/IFNγ ratio (IL-5; [18]): 173
- IL-5 (IL-5; [18]): 173 pg/mL
- IL-5/IFNγ ratio (IL-5; [19]): 49.3
- IL-5 (IL-5; [19]): 296 pg/mL
- secretion of IL-5 (in words) (IL-5): secretion of IL-5

Sequence: TPEKEEPTAAPAEPEAPAPE [Hev b 5 (46-65)]
- IFNγ (IFNγ; [14]): 2 pg/mL
- IFNγ (IFNγ; [15]): 2 pg/mL
- IFNγ (IFNγ; [16]): 18 pg/mL
- IFNγ (IFNγ; [17]): 54 pg/mL
- IFNγ (IFNγ; [20]): 388 pg/mL
- IFNγ (IFNγ; [21]): 227 pg/mL
- IFNγ (IFNγ; [18]): 25 pg/mL
- IFNγ (IFNγ; [19]): 12 pg/mL
- Proliferation inducing (+) or non-inducing (−) peptide ([1]; P1 T cell line): 46-65 (+)
- Oligoclonal proliferative response [1, 2]: 21.3 counts per minute × 10^−3
- Oligoclonal proliferative response [1, 3]: 19.6 counts per minute × 10^−3
- Proliferation inducing (+) or non-inducing (−) peptide ([1]; P2 T cell line): 46-65 (+)
- Oligoclonal proliferative response [1, 4]: 13.4 counts per minute × 10^−3
- Oligoclonal proliferative response [1, 5]: 22.6 counts per minute × 10^−3
- Proliferation inducing (+) or non-inducing (−) peptide ([1]; P3 T cell line): 46.65 (+)
- Oligoclonal proliferative response [1, 6]: 25.8 counts per minute × 10^−3
- Oligoclonal proliferative response [1, 7]: 19.2 counts per minute × 10^−3
- Proliferation inducing (+) or non-inducing (−) peptide ([1]; P4 T cell line): 46-65 (+)
- Oligoclonal proliferative response [1, 8]: 4.4 counts per minute × 10^−3
- Oligoclonal proliferative response [1, 9]: 5.3 counts per minute × 10^−3
- Oligoclonal proliferative response [1, 10]: 4.9 counts per minute × 10^−3
- Oligoclonal proliferative response [1, 11]: 5.6 counts per minute × 10^−3
- Oligoclonal proliferative response [1, 12]: 1.5 counts per minute × 10^−3
- Oligoclonal proliferative response [1, 13]: 1.2 counts per minute × 10^−3
- stimulation index ([1]; fifth of five donors (patient 5)): 5.6
- stimulation index ([1]; first of five donors with IgE reactivity to rHev b 5/MBP (patient 1)): 5.9
- donors whose T cells proliferated in response to the peptide ([1]; five donors with IgE reactivity to rHev b 5/MBP): all five donors
- stimulation index ([1]; fourth of five donors (patient 4)): 5.9
- stimulation index ([1]; second of five donors (patient 2)): 10.8
- stimulation index ([1]; third of five donors (patient 3)): 5.0
- IL-5/IFNγ ratio (IL-5; [14]): 172
- IL-5 (IL-5; [14]): 344 pg/mL
- IL-5/IFNγ ratio (IL-5; [15]): 139.5
- IL-5 (IL-5; [15]): 279 pg/mL
- IL-5/IFNγ ratio (IL-5; [16]): 3.2
- IL-5 (IL-5; [16]): 58 pg/mL
- IL-5/IFNγ ratio (IL-5; [17]): 7.6
- IL-5 (IL-5; [17]): 408 pg/mL
- IL-5/IFNγ ratio (IL-5; [20]): 9.8
- IL-5 (IL-5; [20]): 3799 pg/mL
- IL-5/IFNγ ratio (IL-5; [21]): 14
- IL-5 (IL-5; [21]): 3186 pg/mL
- IL-5/IFNγ ratio (IL-5; [18]): 22.4
- IL-5 (IL-5; [18]): 561 pg/mL
- IL-5/IFNγ ratio (IL-5; [19]): 43.2
- IL-5 (IL-5; [19]): 519 pg/mL
- secretion of IL-5 (in words) (IL-5): secretion of IL-5
